Ten molecules from publication PMC10192418, “High-affinity peptides developed against calprotectin and their application as synthetic ligands in diagnostic assays” (Nature Communications, 2023) can be followed below.

For this assay, the target named is T1, calprotectin tetramer (recombinant B-RCAL, His6-linker-S100A9-linker-S100A8) (Homo sapiens, UniProt P05109).
T1 construct: we used the recombinant protein without removing the His-tag or cleaving the 8-amino acid linker between the two proteins; co-authors' company
T1 sequence (P05109 with tags, fused parts or gaps): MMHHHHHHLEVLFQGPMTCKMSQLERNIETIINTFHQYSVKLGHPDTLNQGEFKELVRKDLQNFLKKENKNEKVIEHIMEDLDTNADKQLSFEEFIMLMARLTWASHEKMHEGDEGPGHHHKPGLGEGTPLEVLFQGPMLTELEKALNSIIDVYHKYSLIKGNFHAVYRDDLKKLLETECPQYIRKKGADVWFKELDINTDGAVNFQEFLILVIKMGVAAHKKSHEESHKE
Description: Fluorescence polarization (FP) binding to recombinant calprotectin B-RCAL tetramer in presence of CaCl2. The procedure: Calprotectin was serially diluted in 20 mM HEPES, 100 mM NaCl, 2 mM CaCl2, pH 7.5, and 1 mM DTT with 0.01% (v/v) Tween-20. Volumes of 16 μL of protein were added to 4 μL of fluorescent peptide (20 nM final concentration) in black 384-well microtiter plates. Fluorescence anisotropy was measured on a microwell plate reader (Infinite M200Pro, Tecan) with filters for excitation at 485 nm and emission at 535 nm. The dissociation constant (Kd) was calculated using a following Eq. (1) using Prism 5 software (GraphPad):1 A=Af+Ab−Af×LT+KD+PT−LT+KD+PT^2−4LTPT/2LT where A is anisotropy, Af and Ab are the anisotropy values for free and bound ligands, respectively. [L]T is the concentration of the total fluorescent ligand and [P]T the concentration of the protein.
For orientation: Fluorescence polarisation rises when a labelled molecule tumbles more slowly, as on binding a larger partner.

[1] abbreviates: FP, alanine scan of linear peptide 3, 20 nM peptide, 2 mM CaCl2, one measurement, NB = non-binding.

Read-outs that look alike come from different tables or passages of the source. Numbered stars: 1 amine (or outer) side, 2 acyl side, 3 side chain; on linkers, the order of the positions; unused ones are H or OH. Bridge positions count the residues as written; N and C are the ends. Peptide text beside a SMILES is read from it. * marks the point of attachment. 5FAM = O=C1OC2(c3ccc(O)cc3Oc3cc(O)ccc32)c2ccc(C(=O)*)cc21; Pyridine(2,6-diCH2) = c1cc(C[*:1])nc(C[*:2])c1

One may read the Kd as the equilibrium constant for the complex coming apart. In the case of `CSCC[C@H](NC(=O)[C@@H]1CCCN1C(=O)[C@H](Cc1ccccc1)NC(=O)[C@H](C)NC(=O)[C@@H](NC(=O)[C@@H]1CSCC(=O)CSC[C@H](NC(=O)[C@H](CCCNC(=N)N)NC(=O)c2ccc3c(c2)C(=O)OC32c3ccc(O)cc3Oc3cc(O)ccc32)C(=O)N2CCC[C@H]2C(=O)N[C@@H](CCC(=O)O)C(=O)N1)C(C)C)C(=O)N[C@@H](Cc1ccccc1)C(=O)N[C@@H](CCC(N)=O)C(=O)N[C@@H](CO)C(=O)N[C@@H](Cc1c[nH]cn1)C(=O)N[C@@H](Cc1c[nH]c2ccccc12)C(=O)N[C@@H](Cc1ccc(O)cc1)C(=O)N[C@@H](CO)C(=O)NCC(N)=O` (single isomer, unassigned) [Peptide 3 Isomer 1a], the dissociation constant Kd is 16.9 nM.
Same read-out and setting: as for `CSCC[C@H](NC(=O)[C@@H]1CCCN1C(=O)[C@H](Cc1ccccc1)NC(=O)[C@H](C)NC(=O)[C@@H](NC(=O)[C@H](CO)NC(=O)[C@H](CCC(=O)O)NC(=O)[C@@H]1CCCN1C(=O)[C@H](CO)NC(=O)[C@H](CCCNC(=N)N)NC(=O)c1ccc2c(c1)C(=O)OC21c2ccc(O)cc2Oc2cc(O)ccc21)C(C)C)C(=O)N[C@@H](Cc1ccccc1)C(=O)N[C@@H](CCC(N)=O)C(=O)N[C@H]1CSCC(=O)CSC[C@@H](C(=O)NCC(N)=O)NC(=O)[C@H](Cc2ccc(O)cc2)NC(=O)[C@H](Cc2c[nH]c3ccccc23)NC(=O)[C@H](Cc2c[nH]cn2)NC1=O` (single isomer, unassigned) [Peptide 3 Isomer 1b], the figure is 17.9 nM.
Consider `CSCC[C@@H]1NC(=O)[C@@H]2CCCN2C(=O)[C@H](Cc2ccccc2)NC(=O)[C@H](C)NC(=O)[C@H](C(C)C)NC(=O)[C@@H]2CSCC(=O)CSC[C@@H](C(=O)NCC(N)=O)NC(=O)[C@H](Cc3ccc(O)cc3)NC(=O)[C@H](Cc3c[nH]c4ccccc34)NC(=O)[C@H](Cc3c[nH]cn3)NC(=O)[C@H](CSCC(=O)CSC[C@H](NC(=O)[C@H](CCCNC(=N)N)NC(=O)c3ccc4c(c3)C(=O)OC43c4ccc(O)cc4Oc4cc(O)ccc43)C(=O)N3CCC[C@H]3C(=O)N[C@@H](CCC(=O)O)C(=O)N2)NC(=O)[C@H](CCC(N)=O)NC(=O)[C@H](Cc2ccccc2)NC1=O` (single isomer, unassigned) [Peptide 3 Isomer 2], for which the “FP increase upon binding to calprotectin” value (FP, 2 mM CaCl2) is recorded as 10–15%.
Take `CSCC[C@@H]1NC(=O)[C@@H]2CCCN2C(=O)[C@H](Cc2ccccc2)NC(=O)[C@H](C)NC(=O)[C@H](C(C)C)NC(=O)[C@@H]2CSCC(=O)CSC[C@H](NC(=O)[C@H](CCC(N)=O)NC(=O)[C@H](Cc3ccccc3)NC1=O)C(=O)N[C@@H](Cc1c[nH]cn1)C(=O)N[C@@H](Cc1c[nH]c3ccccc13)C(=O)N[C@@H](Cc1ccc(O)cc1)C(=O)N[C@H](C(=O)NCC(N)=O)CSCC(=O)CSC[C@H](NC(=O)[C@H](CCCNC(=N)N)NC(=O)c1ccc3c(c1)C(=O)OC31c3ccc(O)cc3Oc3cc(O)ccc31)C(=O)N1CCC[C@H]1C(=O)N[C@@H](CCC(=O)O)C(=O)N2` (single isomer, unassigned) [Peptide 3 Isomer 3]: under “FP, 2 mM CaCl2”, the “FP increase upon binding to calprotectin” value is 10–15%.
On to `CC(C)C[C@H](NC(=O)[C@@H]1CCCN1C(=O)[C@H](Cc1ccccc1)NC(=O)[C@H](C)NC(=O)[C@@H](NC(=O)[C@H](CO)NC(=O)[C@H](CCC(=O)O)NC(=O)[C@@H]1CCCN1C(=O)[C@H](CO)NC(=O)[C@H](CCCNC(=N)N)NC(=O)c1ccc2c(c1)C(=O)OC21c2ccc(O)cc2Oc2cc(O)ccc21)C(C)C)C(=O)N[C@@H](Cc1ccccc1)C(=O)N[C@@H](CCC(N)=O)C(=O)N[C@@H](CO)C(=O)N[C@@H](Cc1c[nH]cn1)C(=O)N[C@@H](Cc1c[nH]c2ccccc12)C(=O)N[C@@H](Cc1ccc(O)cc1)C(=O)N[C@@H](CO)C(=O)NCC(N)=O` [Met10Leu mutant] (5FAM-RSPESVAFPLFQSHWYSG-NH2), for which the Kd (FP, linear peptide 3 with Met10 mutated to leucine, 20 nM peptide, 2 mM CaCl2) was 30.6 ± 4.6 nM.
In the case of `CC[C@H](C)[C@@H]1NC(=O)[C@H](CO)NC(=O)[C@H](Cc2c[nH]c3ccccc23)NC(=O)[C@H](CCCNC(=N)N)NC(=O)[C@@H](NC(=O)[C@H](Cc2ccccc2)NC(=O)[C@@H]2CCCN2C(=O)c2ccc3c(c2)C(=O)OC32c3ccc(O)cc3Oc3cc(O)ccc32)CSCc2cccc(n2)CSC[C@@H](C(=O)N[C@@H](Cc2c[nH]cn2)C(N)=O)NC(=O)[C@H](CC(N)=O)NC(=O)[C@H](CC(=O)O)NC1=O` [Peptide 9] (5FAM-PFCRWSIDNCH-NH2; linker 3-10 via Pyridine(2,6-diCH2)), the Kd (from fluorescence anisotropy titration, SI Figure 3) came to 29000 nM.
Regarding `CSCC[C@H](NC(=O)[C@@H]1CCCN1C(=O)[C@H](Cc1ccccc1)NC(=O)CNC(=O)[C@@H](NC(=O)[C@H](CO)NC(=O)[C@H](CCC(=O)O)NC(=O)[C@@H]1CCCN1C(=O)[C@H](CO)NC(=O)[C@H](CCCNC(=N)N)NC(=O)c1ccc2c(c1)C(=O)OC21c2ccc(O)cc2Oc2cc(O)ccc21)C(C)C)C(=O)N[C@@H](Cc1ccccc1)C(=O)N[C@@H](CCC(N)=O)C(=O)N[C@@H](CO)C(=O)N[C@@H](Cc1c[nH]cn1)C(=O)N[C@@H](Cc1c[nH]c2ccccc12)C(=O)N[C@@H](Cc1ccc(O)cc1)C(=O)N[C@@H](CO)C(=O)NCC(N)=O` [Peptide A7G] (5FAM-RSPESVGFPMFQSHWYSG-NH2), the dissociation constant (Kd) under setting [1] was 29 nM.
In the case of `CSCC[C@H](NC(=O)[C@@H]1CCCN1C(=O)[C@H](Cc1ccccc1)NC(=O)[C@H](C)NC(=O)[C@@H](NC(=O)[C@H](CO)NC(=O)[C@H](C)NC(=O)[C@@H]1CCCN1C(=O)[C@H](CO)NC(=O)[C@H](CCCNC(=N)N)NC(=O)c1ccc2c(c1)C(=O)OC21c2ccc(O)cc2Oc2cc(O)ccc21)C(C)C)C(=O)N[C@@H](Cc1ccccc1)C(=O)N[C@@H](CCC(N)=O)C(=O)N[C@@H](CO)C(=O)N[C@@H](Cc1c[nH]cn1)C(=O)N[C@@H](Cc1c[nH]c2ccccc12)C(=O)N[C@@H](Cc1ccc(O)cc1)C(=O)N[C@@H](CO)C(=O)NCC(N)=O` [Peptide E4A] (5FAM-RSPASVAFPMFQSHWYSG-NH2), under setting [1], the equilibrium dissociation constant (Kd) amounted to 26 nM.
Turning to `CSCC[C@H](NC(=O)[C@@H]1CCCN1C(=O)[C@H](Cc1ccccc1)NC(=O)[C@H](C)NC(=O)[C@@H](NC(=O)[C@H](CO)NC(=O)[C@H](CCC(=O)O)NC(=O)[C@@H]1CCCN1C(=O)[C@H](CO)NC(=O)[C@H](CCCNC(=N)N)NC(=O)c1ccc2c(c1)C(=O)OC21c2ccc(O)cc2Oc2cc(O)ccc21)C(C)C)C(=O)N[C@@H](Cc1ccccc1)C(=O)N[C@@H](CCC(N)=O)C(=O)N[C@@H](CO)C(=O)N[C@@H](Cc1c[nH]cn1)C(=O)N[C@@H](Cc1c[nH]c2ccccc12)C(=O)N[C@@H](Cc1ccc(O)cc1)C(=O)N[C@@H](CO)C(=O)N[C@@H](C)C(N)=O` [Peptide G18A] (5FAM-RSPESVAFPMFQSHWYSA-NH2), the dissociation constant (Kd) under setting [1] was 31 nM.
For the molecule `CSCC[C@H](NC(=O)[C@@H]1CCCN1C(=O)[C@H](Cc1ccccc1)NC(=O)[C@H](C)NC(=O)[C@@H](NC(=O)[C@H](CO)NC(=O)[C@H](CCC(=O)O)NC(=O)[C@H](C)NC(=O)[C@H](CO)NC(=O)[C@H](CCCNC(=N)N)NC(=O)c1ccc2c(c1)C(=O)OC21c2ccc(O)cc2Oc2cc(O)ccc21)C(C)C)C(=O)N[C@@H](Cc1ccccc1)C(=O)N[C@@H](CCC(N)=O)C(=O)N[C@@H](CO)C(=O)N[C@@H](Cc1c[nH]cn1)C(=O)N[C@@H](Cc1c[nH]c2ccccc12)C(=O)N[C@@H](Cc1ccc(O)cc1)C(=O)N[C@@H](CO)C(=O)NCC(N)=O` [Peptide P3A] (5FAM-RSAESVAFPMFQSHWYSG-NH2), the Kd under setting [1] came to 28 nM.
